Test results from patent publication US7491533B2, “Polynucleotides encoding an isolated β-islet cell two-pore domain potassium channel” (Metabolex, Inc., priority 2002, dated 2009).

Molecular target: T1, BIK channels (Homo sapiens, UniProt Q96T55, A277E)
T1 construct: expressed in transfected cells
T1 sequence (Q96T55 1-294 isoform Q96T55-3 A277E): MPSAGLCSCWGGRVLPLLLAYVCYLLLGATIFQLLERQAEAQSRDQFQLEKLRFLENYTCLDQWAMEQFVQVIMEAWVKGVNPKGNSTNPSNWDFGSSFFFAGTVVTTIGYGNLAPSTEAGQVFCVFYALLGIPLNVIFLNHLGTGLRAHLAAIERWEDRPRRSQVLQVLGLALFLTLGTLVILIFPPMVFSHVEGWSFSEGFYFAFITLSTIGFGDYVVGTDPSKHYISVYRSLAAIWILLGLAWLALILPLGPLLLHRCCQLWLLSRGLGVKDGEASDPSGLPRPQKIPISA
Assay: FlexStation / FLIPR Membrane Potential Dye assay in stable HEK293 transfectants
Format: cell-based
Procedure: HEK293 cells stably transfected with pcDNA3.1 (circles) or the same vector allowing expression of BIK (squares) or TASK-2 (triangles) were plated in 96 well assay plates 24 h prior to analysis. Cells were incubated in 100 μl of 0.5×FLIPR Membrane Potential Dye (Molecular Devices) for 30 min. Methanadamide dilutions in DMSO were added to the wells by a FlexStation device (Molecular Devices), the fluorescence intensity changes were recorded before, during and after addition of the compound. The fluorescence intensity changes are plotted as the percent increase from the basal value recorded prior to compound addition. The values are the mean and range of duplicate wells. Similar results were obtained in three other independent experiments.
High level expression of a background/leak potassium channel such as BIK in fibroblasts results in hyperpolarization of the plasma membrane. Further, monitoring the membrane potential of these cells provides an assay for detecting small molecule blockers of BIK. We made stable HEK293 cell lines expressing BIK (and the well characterized background channel TASK2 for comparison) and characterized them using a FLIPR Membrane Potential Dye and FlexStation microplate fluorometer. […] Furthermore, BIK and TASK2 cells display a 3 to 5-fold greater change in fluorescence upon depolarization with 30 mM KCl compared to vector transfected stable cell lines. […]

## CCCCC/C=C\C/C=C\C/C=C\C/C=C\CCCC(=O)N[C@H](C)CO [Methanandamide]
HEK293 stably transfected with pcDNA3.1, BIK or TASK-2, fluorescence change as percent increase from basal
  selectivity of BIK channel inactivation (result in words): partially selective inactivator of BIK
Compound at 100 μM, HEK293 cells stably expressing BIK vs TASK2 or vector (pcDNA3.1)
  fold greater increase in fluorescence (depolarization) in BIK cells than in TASK2 or vector control cells: 3 fold
